Results published in patent US7524504B1, “Anti-glycation hydrolysate of G. lucidum” (priority 2008, dated 2009).

System: AGE-related proteins
Experiment: Inhibition of AGE-related proteins (HSA + glucose incubation, fluorescence)
Assay type: biochemical, human
Details: 7 days of incubation
Procedure: Inhibition of AGE-related proteins was assayed according to the following method. First, a reaction mixture was prepared by mixing 20 mg/ml of human serum albumin (HSA) in 200 mM phosphate buffer (pH 7.4) with 500 mM [90.08 mg/ml] of glucose and 0.02% [0.2 mg/ml] sodium azide (as a preservative). The reaction mixture was incubated at 37° C. for three weeks, during which time AGE-related proteins were produced via a Maillard-type reaction. After 7, 14 and 21 days, aliquots of the reaction mixture were passed through a molecular weight sieve (PD-10 column) and equilibrated in water to remove free glucose and Schiff base. […] The latter reaction generates fluorescent by-products with fluorescence proportional to the amount of accumulated AGE-related proteins as determined with a microplate fluorescence reader (Bio-Tek FL600) at an excitation wavelength of 360 nm and an emission wavelength of 440 nm.
To aliquots of the initial reaction mixture capable of producing AGE-related endproducts as described above were added varying concentrations of extract of G. lucidum according to the present invention (i.e., hydrolyzed with acid protease of R. miehei and thereafter rendered substantially devoid of acid protease activity). […] Fluorescence was measured after 7 days of incubation in the reaction mixture as set out above.

## N=C(N)NN [aminoguanidine, Aminoguanidine]
100 mM + Positive Control
  Fluorescence (at 440 nm), normalized to 100: 73
200 mM + Positive Control
  Fluorescence (at 440 nm), normalized to 100: 45
